Some test systems named below: ACHN renal; DU-145 prostate; HCT-15 colon; HOP-92 NSCLC; HT29 colon; K-562 leukemia; MDA-MB-231 breast; MDA-MB-435; NCI-H23 lung; NCI-H460 lung; NCI-H522 lung; PC-3 prostate; RXF 393 renal; SK-MEL-2 melanoma; SN12C renal; SNB-19 CNS; SR leukemia; T-47D breast; U251 CNS; UACC-62 melanoma.
Assay in all cases: NCI-60 cell line screen, 48 h

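Step 1: Grow cells in 96-well plates. Step 2: Expose to compound for 48 hours at 5 concentrations. Step 3: Interpolate endpoints linearly; if unreached, use highest concentration. TGI is the concentration that stops growth completely.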

Take `O=C1c2c(Br)sc(Br)c2[C@H]2NC(=S)O[C@@H]12`: the TGI in the assay with ACHN renal turned out to be 31.6 µM; in the assay on DU-145 prostate, 30.7 µM; with HCT-15 colon, 16.6 µM; in the assay with HOP-92 NSCLC, 33.8 µM; with HT29 colon, 33.5 µM; in the assay on K-562 leukemia, 20.7 µM. Further, the TGI in the assay with MDA-MB-231 breast was found to be 32.2 µM; with MDA-MB-435, 29.1 µM; in the assay with NCI-H23 lung, 29.9 µM; in the assay on NCI-H460 lung it was 38.3 µM; with NCI-H522 lung it was 3.74 µM; in the assay with PC-3 prostate it was 27.7 µM. Also, the TGI in the assay on RXF 393 renal was 27.9 µM; with SK-MEL-2 melanoma, 33.4 µM; with SN12C renal, 32.7 µM; in the assay on SNB-19 CNS, 50.8 µM; with SR leukemia, 15.3 µM; in the assay with T-47D breast, 69.3 µM. For the same compound, the TGI in the assay on U251 CNS turned out to be 26.7 µM; with UACC-62 melanoma, 29.2 µM.

Turning to `CCCNc1[nH]c(C(C)=O)c(N)c1C(=S)Nc1ccccc1`, the TGI was above 100 µM in the assay on ACHN renal; above 100 µM in the assay with DU-145 prostate; above 100 µM with HCT-15 colon; above 100 µM with HOP-92 NSCLC; 53.2 µM with HT29 colon; above 100 µM with K-562 leukemia. The TGI in the assay on MDA-MB-231 breast is above 100 µM; in the assay on MDA-MB-435 it was 55.9 µM; in the assay on NCI-H23 lung, above 100 µM; in the assay with NCI-H460 lung it was above 100 µM; with NCI-H522 lung, above 100 µM; with PC-3 prostate it was above 100 µM. Also, the TGI in the assay on RXF 393 renal is 65.3 µM; with SK-MEL-2 melanoma, above 100 µM; with SN12C renal, above 100 µM; with SNB-19 CNS, above 100 µM; with SR leukemia, above 100 µM; in the assay on T-47D breast, above 100 µM. Also, the results for the TGI in the assay with U251 CNS and with UACC-62 melanoma were above 100 µM and 41.6 µM, respectively.

As to `CC[C@H](CCCCC1CC[C@@H]2CC(=O)C[C@H]12)OC` (stereo not given in full), the TGI in the assay with ACHN renal, with DU-145 prostate, in the assay with HCT-15 colon, in the assay with HOP-92 NSCLC, with HT29 colon and in the assay with K-562 leukemia was above 100 µM each time. Further, the TGI in the assay on MDA-MB-231 breast, in the assay on MDA-MB-435, in the assay on NCI-H23 lung, in the assay on NCI-H460 lung, in the assay with NCI-H522 lung and in the assay on PC-3 prostate was above 100 µM each time. The TGI in the assay with RXF 393 renal, with SK-MEL-2 melanoma, in the assay on SN12C renal, in the assay on SNB-19 CNS, with SR leukemia and in the assay with T-47D breast was above 100 µM each time. Also, the TGI in the assay on U251 CNS and in the assay with UACC-62 melanoma was above 100 µM throughout.

Take `O=[N+]([O-])C(=C1Nc2ccccc2N1)C(Cl)=C(Cl)Cl`: the TGI in the assay with ACHN renal, in the assay on DU-145 prostate, in the assay with HCT-15 colon, in the assay on HOP-92 NSCLC, in the assay on HT29 colon and with K-562 leukemia was above 100 µM each time. Further, the TGI was 90.3 µM in the assay with MDA-MB-231 breast; above 100 µM with MDA-MB-435; above 100 µM in the assay with NCI-H23 lung; above 100 µM in the assay on NCI-H460 lung; above 100 µM with NCI-H522 lung; above 100 µM with PC-3 prostate. Further, the TGI is above 100 µM in the assay with RXF 393 renal; above 100 µM in the assay on SK-MEL-2 melanoma; above 100 µM in the assay on SN12C renal; above 100 µM in the assay on SNB-19 CNS; above 100 µM in the assay with SR leukemia; 77.7 µM in the assay on T-47D breast. Besides, the TGI with U251 CNS and in the assay with UACC-62 melanoma was above 100 µM each time.

For `Cc1ccc(C2SC(N)=Nc3c2c(C)nn3C(=O)c2ccncc2)cc1` (stereo not given), the TGI in the assay with ACHN renal, with DU-145 prostate, with HCT-15 colon, with HOP-92 NSCLC, in the assay on HT29 colon and in the assay with K-562 leukemia was above 10 µM in each case. Further, the TGI in the assay on MDA-MB-231 breast, in the assay on MDA-MB-435, with NCI-H23 lung, with NCI-H460 lung, in the assay on NCI-H522 lung and with PC-3 prostate was above 10 µM throughout. In addition, the TGI in the assay on RXF 393 renal, with SK-MEL-2 melanoma, in the assay with SN12C renal, in the assay on SNB-19 CNS, with SR leukemia and with T-47D breast was above 10 µM each time. The TGI in the assay with U251 CNS and in the assay with UACC-62 melanoma was above 10 µM each time.

With `Cc1ccc(S(=O)(=O)C2=c3ncccc3=C3C(=O)c4ccccc4C(=O)C32)cc1` (stereo not given), the TGI in the assay with ACHN renal was above 95.8 µM; with DU-145 prostate, above 100 µM; in the assay on HCT-15 colon, above 100 µM; in the assay with HOP-92 NSCLC it was above 89.5 µM; in the assay with HT29 colon it was above 100 µM; in the assay with K-562 leukemia, above 100 µM. Besides, the TGI is above 100 µM in the assay with MDA-MB-231 breast; above 100 µM in the assay on MDA-MB-435; above 100 µM in the assay on NCI-H23 lung; above 56.9 µM in the assay with NCI-H460 lung; 85.3 µM with NCI-H522 lung; above 100 µM in the assay on PC-3 prostate. Also, the TGI with RXF 393 renal was above 31.6 µM; in the assay on SK-MEL-2 melanoma, above 100 µM; in the assay with SN12C renal it was above 100 µM; in the assay on SNB-19 CNS it was 79.9 µM; in the assay with SR leukemia, above 100 µM; in the assay on T-47D breast, above 100 µM. The TGI was above 100 µM in the assay on U251 CNS and 69.7 µM in the assay on UACC-62 melanoma.

For `C=C1CC2(OC1=O)c1ccccc1CCc1ccccc12`, the TGI with ACHN renal came out at 3.33 µM; in the assay with DU-145 prostate, 32.7 µM; in the assay on HCT-15 colon, 3.6 µM; in the assay on HOP-92 NSCLC it was 3.14 µM; in the assay with HT29 colon, 3.6 µM; in the assay with K-562 leukemia, 4.81 µM. The TGI in the assay with MDA-MB-231 breast was 21.2 µM; in the assay on MDA-MB-435 it was 6.15 µM; with NCI-H23 lung, 23 µM; in the assay with NCI-H460 lung, 26.7 µM; in the assay on NCI-H522 lung, 3.14 µM; in the assay with PC-3 prostate it was 27.4 µM. The TGI with RXF 393 renal was determined as 3.07 µM; in the assay on SK-MEL-2 melanoma, 12.8 µM; with SN12C renal it was 5.47 µM; in the assay with SNB-19 CNS it was 15.6 µM; in the assay with SR leukemia it was 2.3 µM; with T-47D breast, 3.6 µM. The TGI with U251 CNS turned out to be 18.1 µM; in the assay on UACC-62 melanoma, 15.9 µM.

For `COc1cc(OC)c(/C=N/N=C(\N)NO)c(OC)c1`, the TGI in the assay with ACHN renal, in the assay with DU-145 prostate, in the assay on HCT-15 colon, in the assay on HOP-92 NSCLC, in the assay on HT29 colon and in the assay with K-562 leukemia was above 100 µM throughout. For the same compound, the TGI in the assay with MDA-MB-231 breast, in the assay on MDA-MB-435, in the assay on NCI-H23 lung, in the assay with NCI-H460 lung, with NCI-H522 lung and in the assay on PC-3 prostate was above 100 µM throughout. Also, the TGI with RXF 393 renal, in the assay on SK-MEL-2 melanoma, with SN12C renal, in the assay on SNB-19 CNS, with SR leukemia and in the assay on T-47D breast was above 100 µM in each case. Further, the TGI in the assay with U251 CNS and in the assay on UACC-62 melanoma was above 100 µM in each case.

Values taken from PubChem BioAssay (NCI).
